Measured values from ChEMBL document CHEMBL5715945 (Cancer Biol Ther, 2010).
Calls of active or inactive are those of the source. The rule behind the calls is not given here.

What was measured:
[1] = biological target: Tyrosine-protein kinase Fyn (Homo sapiens) (UniProt P06241); test: Inhibition of Fyn (unknown origin) at 1 uM relative to control; values are per cent of control
4T1 [2] = test: Antitumor activity against mouse 4T1 cells harbouring mCherry red fluorescent protein implanted in BALB/c mouse assessed as fold reduction in tumor weight at 100 mg/kg, sc bid measured after 5 days; format: functional; details: time 5 day
[3] = biological target: Serine/threonine-protein kinase Chk1 (Homo sapiens) (UniProt O14757); test: Inhibition of CHK1 (unknown origin) at 1 uM relative to control; values are per cent of control
Chain of Serine/threonine-protein kinase Chk1 (Homo sapiens) (O14757 whole entry): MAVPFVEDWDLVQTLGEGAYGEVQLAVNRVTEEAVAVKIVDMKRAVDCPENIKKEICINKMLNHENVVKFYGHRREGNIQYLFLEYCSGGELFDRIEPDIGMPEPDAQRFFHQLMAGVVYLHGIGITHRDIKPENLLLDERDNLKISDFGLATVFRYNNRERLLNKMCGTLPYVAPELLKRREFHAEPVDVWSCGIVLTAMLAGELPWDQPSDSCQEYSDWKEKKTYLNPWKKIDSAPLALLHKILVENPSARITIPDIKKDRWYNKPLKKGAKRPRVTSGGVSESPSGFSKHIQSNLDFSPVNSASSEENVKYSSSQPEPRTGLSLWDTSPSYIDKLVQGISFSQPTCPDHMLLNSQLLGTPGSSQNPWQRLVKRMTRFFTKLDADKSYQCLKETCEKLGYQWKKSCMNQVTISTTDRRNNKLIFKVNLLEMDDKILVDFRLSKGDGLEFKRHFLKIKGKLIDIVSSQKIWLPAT

4T1 [4] = test: Inhibition of cell migration in mouse 4T1 cells at 1 uM incubated for 22 hrs by wound healing assay; format: functional, cell-based
4T1 [5] = test: Induction of apoptosis in mouse 4T1 suspended cells at 0.1 to 1 uM incubated for 48 hrs by PI staining based flow cytometry analysis; format: functional, cell-based; details: dose 0.1-1 µM
[6] = biological target: Angiopoietin-1 receptor (Homo sapiens) (UniProt Q02763); test: Inhibition of Tie2 (unknown origin) at 0.1 uM relative to control; values are per cent of control
Homo sapiens [7] = species on record: Homo sapiens; test: Inhibition of p70S6K (unknown origin) at 1 uM relative to control; values are per cent of control
[8] = biological target: Tyrosine-protein kinase Fyn (Homo sapiens) (UniProt P06241); test: Inhibition of Fyn (unknown origin) at 0.1 uM relative to control; values are per cent of control
ID8 = test: Antitumor activity against mouse ID8 cells implanted in C57BL6 mouse assessed as reduction in number of ascites-associated cells at 0.5 mg/ml administered as solution in 5% sucrose measured after 30 days; format: functional, cell-based; details: time 30.0 day
[9] = biological target: Rho-associated protein kinase 1 (Homo sapiens) (UniProt Q13464); test: Inhibition of ROCK1 (unknown origin) at 0.1 uM relative to control; values are per cent of control
4T1 [10] = test: Induction of cell cycle arrest in mouse 4T1 adherent cells assessed as accumulation at G0/G1 phase at 1 uM measured after 72 hrs by PI staining based flow cytometry analysis (reference value: 76.8%); format: functional
4T1 [11] = test: Effect on p130Cas phosphorylation at Tyr249 residue in mouse 4T1 cultured as 3D spheroids at 0.1 uM incubated for 24 hrs by immunoblotting analysis; format: functional, cell-based
[12] = biological target: Focal adhesion kinase 1 (Mus musculus) (UniProt P34152); test: Inhibition of FAK phosphorylation at Y397 residue in mouse 4T1 suspended cells at 0.1 uM incubated for 24 hrs by immunoblotting analysis; format: cell-based
Chain of Focal adhesion kinase 1 (Mus musculus) (P34152 whole entry): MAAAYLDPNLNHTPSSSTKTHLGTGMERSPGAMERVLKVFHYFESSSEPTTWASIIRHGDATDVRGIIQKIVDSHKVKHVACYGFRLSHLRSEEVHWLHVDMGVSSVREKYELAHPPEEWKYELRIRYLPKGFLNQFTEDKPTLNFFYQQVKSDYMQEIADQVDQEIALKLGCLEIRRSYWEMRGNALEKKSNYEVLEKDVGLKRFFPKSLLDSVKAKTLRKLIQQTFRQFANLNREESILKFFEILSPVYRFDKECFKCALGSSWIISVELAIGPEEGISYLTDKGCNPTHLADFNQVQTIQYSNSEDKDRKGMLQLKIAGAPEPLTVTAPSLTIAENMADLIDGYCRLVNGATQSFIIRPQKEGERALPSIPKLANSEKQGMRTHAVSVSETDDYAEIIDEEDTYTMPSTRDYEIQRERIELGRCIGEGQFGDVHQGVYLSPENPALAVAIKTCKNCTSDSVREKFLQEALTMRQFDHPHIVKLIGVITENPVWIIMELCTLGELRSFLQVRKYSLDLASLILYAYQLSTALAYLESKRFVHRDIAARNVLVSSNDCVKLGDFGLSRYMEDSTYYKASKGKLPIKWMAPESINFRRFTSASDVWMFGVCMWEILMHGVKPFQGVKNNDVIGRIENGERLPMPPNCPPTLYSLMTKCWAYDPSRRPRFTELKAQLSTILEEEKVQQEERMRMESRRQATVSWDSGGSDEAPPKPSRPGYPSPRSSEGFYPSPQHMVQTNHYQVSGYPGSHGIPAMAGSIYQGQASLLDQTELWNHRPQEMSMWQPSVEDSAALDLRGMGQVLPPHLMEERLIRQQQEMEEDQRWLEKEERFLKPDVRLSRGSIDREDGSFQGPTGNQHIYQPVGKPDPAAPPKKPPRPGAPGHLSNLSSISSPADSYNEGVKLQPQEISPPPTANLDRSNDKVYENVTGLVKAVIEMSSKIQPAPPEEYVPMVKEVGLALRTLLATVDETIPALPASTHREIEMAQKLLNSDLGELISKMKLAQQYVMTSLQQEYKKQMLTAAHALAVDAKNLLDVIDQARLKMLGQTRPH

[13] = biological target: RAF proto-oncogene serine/threonine-protein kinase (Homo sapiens) (UniProt P04049); test: Inhibition of c-RAF (unknown origin) at 1 uM relative to control; values are per cent of control
Chain of RAF proto-oncogene serine/threonine-protein kinase (Homo sapiens) (P04049 whole entry): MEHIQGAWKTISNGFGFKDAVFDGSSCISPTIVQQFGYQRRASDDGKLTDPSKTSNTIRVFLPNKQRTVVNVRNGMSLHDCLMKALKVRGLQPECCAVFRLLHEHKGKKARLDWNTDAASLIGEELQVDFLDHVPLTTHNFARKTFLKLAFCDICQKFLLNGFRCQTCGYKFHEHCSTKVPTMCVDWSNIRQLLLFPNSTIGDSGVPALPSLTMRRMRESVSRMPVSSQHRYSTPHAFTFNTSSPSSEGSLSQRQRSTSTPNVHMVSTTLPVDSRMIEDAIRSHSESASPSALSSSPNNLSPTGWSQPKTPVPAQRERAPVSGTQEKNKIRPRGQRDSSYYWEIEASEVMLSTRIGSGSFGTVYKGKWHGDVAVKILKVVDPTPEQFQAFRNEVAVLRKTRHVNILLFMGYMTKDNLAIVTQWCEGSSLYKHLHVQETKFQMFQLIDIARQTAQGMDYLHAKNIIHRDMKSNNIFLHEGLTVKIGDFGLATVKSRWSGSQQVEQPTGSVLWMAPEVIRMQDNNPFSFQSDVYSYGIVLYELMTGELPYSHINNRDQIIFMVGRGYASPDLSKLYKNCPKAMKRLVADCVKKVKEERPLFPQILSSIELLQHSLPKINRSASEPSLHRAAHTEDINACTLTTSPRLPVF

[14] = biological target: Mast/stem cell growth factor receptor Kit (Homo sapiens) (UniProt P10721); test: Inhibition of c-kit (unknown origin) at 1 uM relative to control; values are per cent of control
Chain of Mast/stem cell growth factor receptor Kit (Homo sapiens) (P10721 whole entry): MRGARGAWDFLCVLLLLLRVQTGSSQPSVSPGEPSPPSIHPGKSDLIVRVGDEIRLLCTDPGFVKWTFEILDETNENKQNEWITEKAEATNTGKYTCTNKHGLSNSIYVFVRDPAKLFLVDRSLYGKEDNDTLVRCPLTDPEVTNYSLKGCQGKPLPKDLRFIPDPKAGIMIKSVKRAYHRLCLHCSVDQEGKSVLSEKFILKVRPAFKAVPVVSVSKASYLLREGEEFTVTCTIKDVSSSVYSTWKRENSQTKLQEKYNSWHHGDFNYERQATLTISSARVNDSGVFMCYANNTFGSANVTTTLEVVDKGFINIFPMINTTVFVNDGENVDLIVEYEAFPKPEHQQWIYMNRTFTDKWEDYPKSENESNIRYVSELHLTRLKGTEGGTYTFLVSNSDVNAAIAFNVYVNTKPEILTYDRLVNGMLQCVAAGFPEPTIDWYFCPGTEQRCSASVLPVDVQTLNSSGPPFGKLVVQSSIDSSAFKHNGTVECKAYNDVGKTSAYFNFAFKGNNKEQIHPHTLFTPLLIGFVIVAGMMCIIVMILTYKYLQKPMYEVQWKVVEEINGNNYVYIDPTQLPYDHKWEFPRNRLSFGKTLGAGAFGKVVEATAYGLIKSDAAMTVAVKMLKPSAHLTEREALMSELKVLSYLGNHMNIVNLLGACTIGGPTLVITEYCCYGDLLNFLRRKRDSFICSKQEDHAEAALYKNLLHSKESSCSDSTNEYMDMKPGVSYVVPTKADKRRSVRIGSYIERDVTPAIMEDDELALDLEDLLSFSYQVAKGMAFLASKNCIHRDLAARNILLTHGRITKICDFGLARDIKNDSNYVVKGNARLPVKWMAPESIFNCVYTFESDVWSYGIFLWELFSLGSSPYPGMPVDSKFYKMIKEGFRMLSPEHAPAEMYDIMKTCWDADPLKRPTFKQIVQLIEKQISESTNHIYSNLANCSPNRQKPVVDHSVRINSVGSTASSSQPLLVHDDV

4T1 [15] = test: Effect on Src phosphorylation at Tyr416 residue in mouse 4T1 cells harbouring mCherry red fluorescent protein at 0.1 to 1 uM incubated for 1 hr by immunoblotting analysis; format: functional, cell-based; details: dose 0.1-1 µM
[16] = biological target: Platelet-derived growth factor receptor beta (Homo sapiens) (UniProt P09619); test: Inhibition of PDGFRb (unknown origin) at 1 uM relative to control; values are per cent of control
[17] = biological target: ALK tyrosine kinase receptor (Homo sapiens) (UniProt Q9UM73); test: Inhibition of ALK (unknown origin) at 0.1 uM relative to control; values are per cent of control
[18] = biological target: Mast/stem cell growth factor receptor Kit (Homo sapiens) (UniProt P10721); test: Inhibition of c-kit (unknown origin) at 0.1 uM relative to control; values are per cent of control
4T1 [19] = test: Antiproliferative activity against mouse 4T1 cells cultured as 3D spheroids assessed as fold reduction in average spheroid size at 0.1 uM measured after 72 hrs by phase contrast microscopic analysis; format: functional
[20] = biological target: Epidermal growth factor receptor (Homo sapiens) (UniProt P00533); test: Inhibition of EGFR (unknown origin) at 0.1 uM relative to control; values are per cent of control
[21] = biological target: cAMP-dependent protein kinase (PKA) (Homo sapiens) (UniProt P22694+P17612+P22612); test: Inhibition of PKA (unknown origin) at 1 uM relative to control; values are per cent of control
4T1 [22] = test: Effect on p130Cas phosphorylation at Tyr249 residue in mouse 4T1 cells harbouring mCherry red fluorescent protein at 0.1 to 1 uM incubated for 1 hr by immunoblotting analysis; format: functional, cell-based; details: dose 0.1-1 µM
[23] = biological target: Protein kinase C alpha type (Homo sapiens) (UniProt P17252); test: Inhibition of PKCa (unknown origin) at 1 uM relative to control; values are per cent of control
[24] = biological target: Focal adhesion kinase 1 (Mus musculus) (UniProt P34152); test: Inhibition of FAK phosphorylation at Tyr397 residue in mouse 4T1 cells harbouring mCherry red fluorescent protein at 0.1 to 1 uM incubated for 1 hr by immunoblotting analysis; format: cell-based; details: dose 0.1-1 µM
[25] = biological target: Proto-oncogene tyrosine-protein kinase Src (Homo sapiens) (UniProt P12931); test: Inhibition of c-SRC (unknown origin) at 1 uM relative to control; values are per cent of control
Chain of Proto-oncogene tyrosine-protein kinase Src (Homo sapiens) (P12931 2-536 limits assumed): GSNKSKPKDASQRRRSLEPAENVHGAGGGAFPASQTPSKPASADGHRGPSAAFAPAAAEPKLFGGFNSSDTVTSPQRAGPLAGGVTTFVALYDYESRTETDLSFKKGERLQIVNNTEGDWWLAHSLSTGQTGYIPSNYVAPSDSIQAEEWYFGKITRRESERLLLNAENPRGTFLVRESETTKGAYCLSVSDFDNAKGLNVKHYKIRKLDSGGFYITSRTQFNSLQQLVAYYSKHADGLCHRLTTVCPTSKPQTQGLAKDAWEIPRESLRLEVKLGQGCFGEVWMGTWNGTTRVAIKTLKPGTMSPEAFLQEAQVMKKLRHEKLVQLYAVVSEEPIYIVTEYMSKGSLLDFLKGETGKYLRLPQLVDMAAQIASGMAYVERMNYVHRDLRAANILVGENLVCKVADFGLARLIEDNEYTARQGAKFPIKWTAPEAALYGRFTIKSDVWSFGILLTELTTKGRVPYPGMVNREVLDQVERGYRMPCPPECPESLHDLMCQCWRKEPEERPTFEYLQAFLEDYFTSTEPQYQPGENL

[26] = biological target: Focal adhesion kinase 1 (Mus musculus) (UniProt P34152); test: Inhibition of FAK phosphorylation at Y397 residue in mouse 4T1 adherent cells cultured as 3D spheroids at 0.1 to 1 uM incubated for 24 hrs by immunoblotting analysis; format: cell-based; details: dose 0.1-1 µM
Homo sapiens [27] = species on record: Homo sapiens; test: Inhibition of CDK2/cyclin A (unknown origin) at 0.1 uM relative to control; values are per cent of control
[28] = biological target: Proto-oncogene tyrosine-protein kinase receptor Ret (Homo sapiens) (UniProt P07949); test: Inhibition of Ret (unknown origin) at 0.1 uM relative to control; values are per cent of control
[29] = biological target: Protein kinase C alpha type (Homo sapiens) (UniProt P17252); test: Inhibition of PKCa (unknown origin) at 0.1 uM relative to control; values are per cent of control
4T1 [30] = test: Effect on Src phosphorylation at Y416 residue in mouse 4T1 cultured as 3D spheroids at 0.1 to 1 uM incubated for 24 hrs by immunoblotting analysis; format: functional, cell-based; details: dose 0.1-1 µM

Chain of Tyrosine-protein kinase Fyn (Homo sapiens) (P06241 2-537 limits assumed): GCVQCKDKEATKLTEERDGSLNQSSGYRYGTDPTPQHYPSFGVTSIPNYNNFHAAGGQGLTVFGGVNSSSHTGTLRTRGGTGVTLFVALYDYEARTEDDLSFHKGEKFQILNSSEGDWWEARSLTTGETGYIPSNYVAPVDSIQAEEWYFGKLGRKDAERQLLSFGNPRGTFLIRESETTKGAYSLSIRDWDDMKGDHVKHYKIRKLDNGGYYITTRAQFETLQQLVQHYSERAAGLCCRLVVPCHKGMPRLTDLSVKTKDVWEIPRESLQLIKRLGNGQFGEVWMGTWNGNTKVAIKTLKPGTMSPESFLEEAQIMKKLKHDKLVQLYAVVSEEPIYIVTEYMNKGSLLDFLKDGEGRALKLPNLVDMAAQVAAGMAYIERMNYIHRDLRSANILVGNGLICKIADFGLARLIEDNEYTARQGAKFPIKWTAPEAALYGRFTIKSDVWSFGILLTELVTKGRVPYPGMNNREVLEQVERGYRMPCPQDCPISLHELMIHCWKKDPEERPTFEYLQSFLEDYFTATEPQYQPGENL

## CNC(=O)c1ccccc1Nc1cc(Nc2ccc(N3CCOCC3)cc2OC)ncc1C(F)(F)F [VS-4718]
[1]
  residual activity: 78%
4T1 [2]
  fold change (FC): 2
[3]
  residual activity: 105%
4T1 [4]
  inhibition: Active
4T1 [5]
  Activity: inactive
[6]
  residual activity: 97%
Homo sapiens [7]
  residual activity: 97%
[8]
  residual activity: 99%
ID8
  Activity: Active
[9]
  residual activity: 96%
4T1 [10]
  Activity: 65.7%
4T1 [11]
  Activity: Active
[12]
  inhibition: Active
[13]
  residual activity: 150%
[14]
  residual activity: 122%
4T1 [15]
  Activity: inactive
[16]
  residual activity: 105%
[17]
  residual activity: 145%
[18]
  residual activity: 119%
4T1 [19]
  fold change (FC): ~3
[20]
  residual activity: 99%
[21]
  residual activity: 111%
4T1 [22]
  Activity: inactive
[23]
  residual activity: 96%
[24]
  inhibition: Active
[25]
  residual activity: 72%
[26]
  inhibition: Active
Homo sapiens [27]
  residual activity: 91%
[28]
  residual activity: 86%
[29]
  residual activity: 101%
4T1 [30]
  Activity: inactive
